Reference: paper doi:10.1101/2025.11.04.686469, “Discovery of Host-Directed Small Molecules with Broad Anti-Leishmanial Efficacy” (bioRxiv, 2025)
Values after ≈ are worked out from the molar mass of the structure shown. Like-named read-outs stand apart in the source and are kept apart here.

Columns and labels:
[1] = tested on: intracellular L. donovani amastigotes; test: Luminescent-based evaluation of intracellular anti-leishmanial activity in THP-1 macrophages; assay type: cell-based, Leishmania donovani
In short: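 PMA-differentiated THP-1 macrophages (150 nM, 72 h) were infected 18 h with firefly luciferase-expressing L. donovani LV82 promastigotes, then washed. Infected cells were treated with compounds at 0.1-10 μM for 72 h. Surviving intracellular amastigotes were quantified by firefly luciferase luminescence after cell lysis and 10 min substrate incubation at room temperature.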

THP-1 macrophages = test: Effect of compounds on host cell viability (MTT); assay type: cell-based
In short: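 Viability was read as MTT reduction: 2 h with 0.5 mg/mL, formazan dissolved in isopropanol, A560 with 670 nm background subtracted. The macrophages were PMA-differentiated THP-1 cells (150 nM, 72 h), treated 24 h at 1–50 μM or, for some compounds, 72 h at 1–300 μM.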

[2] = tested on: extracellular L. donovani promastigotes; test: Effect of compounds on promastigote viability (resazurin assay); assay type: cell-based, Leishmania donovani; details: 72-hour incubation, resazurin assay; read-out: Extracellular L. donovani promastigotes MIC50
Method: The effect of compounds on extracellular promastigotes was evaluated using a resazurin-based assay as described previously. In short, late log phase Leishmania promastigotes were seeded in a 96 well plate at 1 x 10^5 parasites per well and treated with drugs (0.5 – 200 μM) for 72 hours at 25°C. Ten microliters of resazurin (0.02% w/v) were added to the treated parasites to achieve a final concentration of 0.002% w/v and incubated for 24 hours. Viability of the promastigotes was assessed by fluorescence (excitation 544 nm, emission 590 nm, SpectraMax M2, Molecular Devices).

[3] = tested on: intracellular L. donovani amastigotes; test: Image-based (Giemsa staining) evaluation of intracellular anti-leishmanial activity in bone marrow derived macrophages; assay type: cell-based, Leishmania donovani; details: Giemsa staining, 72-hour incubation, read-out: Intracellular L. donovani amastigotes IC50
Method: Bone marrow derived macrophages (BMDMs) were isolated from BALB/c mice and cultured as previously described. […] Completely differentiated BMDMs are obtained after 7 days of culture with media change every 2 days. Harvested cells were seeded onto 10 mm glass cover slips at 5 x 10^5 cells/ well of a 24 well plate in DMEM media (without LCM) and allowed to adhere overnight. […] After infection, cells were washed three times with fresh media to remove extracellular promastigotes and treated with compounds for a 72-hour incubation. BMDM cells were then washed with phosphate buffered saline, fixed with ice-cold methanol, and stained with Giemsa (5% v/v in water). The cover slips with stained cells are mounted onto glass slides and imaged on EVOS XL (100X, Thermo Fisher Scientific). Leishmania amastigotes per 100 macrophages were determined in a blinded manner.

[4] = THP1 macrophages, luminescence assay, 72 hours of treatment, read-out: Intracellular L. donovani amastigotes Lum IC50
[5] = THP-1 macrophages, 72-hour incubation, MTT assay, read-out: 72 hr viability of THP-1 macrophages LC50
[6] = read-out: 24 hr viability of THP-1 macrophages 24h LC50, THP-1 macrophages, 24-hour incubation, MTT assay
[7] = intracellular Leishmania donovani in THP1 macrophages, luminescence assay (Supplemental Table 2), read-out: Lum IC50
[8] = read-out: 24h LC50, THP1 macrophages, 24-hour incubation, MTT assay (Supplemental Table 2)

| SMILES | IC50 [1, 7] | CC50 (THP-1 macrophages; [8]) | further results |
| --- | --- | --- | --- |
| Nc1ccc(CNC2CCN(c3ccc(-n4nc(C(F)(F)F)cc4-c4ccc(-c5ccc(C(F)(F)F)cc5)cc4)cc3)C2)cc1 (stereo not drawn) [Compound 23] |  |  | IC50 [1, 4]: 0.4 µM; CC50 (THP-1 macrophages; [5]): 6.9 µM; CC50 (THP-1 macrophages; [6]): 5.8 µM; MIC50 [2]: 4.0 µM (≈ 2.49 µg/mL); IC50 [3]: 0.9 µM |
| FC(F)(F)c1ccc(-c2ccc(-c3cc(C(F)(F)F)nn3-c3ccc(NC4CCNC4)cc3)cc2)cc1 (stereo not drawn) [Compound 25] |  |  | IC50 [1, 4]: 0.7 µM; CC50 (THP-1 macrophages; [5]): 6.3 µM; CC50 (THP-1 macrophages; [6]): 28.9 µM; MIC50 [2]: 2.1 µM (≈ 1.08 µg/mL); IC50 [3]: 2.5 µM |
| CC(C)(C)C#Cc1ccc(-c2cc(C(F)(F)F)nn2-c2ccc(N3CCNCC3)cc2)cc1.Cl [Compound 44] |  |  | IC50 [1, 4]: 0.9 µM; CC50 (THP-1 macrophages; [5]): 14.5 µM; CC50 (THP-1 macrophages; [6]): 7.4 µM; MIC50 [2]: 1.9 µM; IC50 [3]: 1 µM |
| NCC(=O)Nc1ccc(-n2cc(C(F)(F)F)nc2-c2ccc(-c3ccccc3)cc2)cc1 [Compound 50] |  |  | IC50 [1, 4]: 1.5 µM; CC50 (THP-1 macrophages; [5]): 42.7 µM; CC50 (THP-1 macrophages; [6]): 23.5 µM; MIC50 [2]: 14.6 µM (≈ 6.37 µg/mL); IC50 [3]: 9.1 µM |
| FC(F)(F)c1cc(C2CCCCC2)n(-c2ccc(NC3CCNC3)cc2)n1 (stereo not drawn) [Compound 312] | 4.8 µM | 25.5 µM |  |
| FC(F)(F)c1cc(C(F)(F)F)n(-c2ccc(NC3CCNC3)cc2)n1 (stereo not drawn) [Compound 314] | 2.7 µM | 21.9 µM |  |
| CC(C)c1cc(C(F)(F)F)nn1-c1ccc(NC2CCNC2)cc1 (stereo not drawn) [Compound 315] | 3.3 µM | 25.1 µM |  |
| CCc1cc(C(F)(F)F)nn1-c1ccc(NC2CCNC2)cc1 (stereo not drawn) [Compound 318] | 1.8 µM | 27 µM |  |
| FC(F)(F)c1cc(C2CCCCC2)n(-c2ccc(NC3CCN(Cc4ccccc4)CC3)cc2)n1 [Compound 321] | 5.1 µM | 23.9 µM |  |
| N#Cc1ccc(CN2CCC(Nc3ccc(-n4nc(C(F)(F)F)cc4C4CCCCC4)cc3)CC2)cc1 [Compound 323] | 8.9 µM | 28.3 µM |  |
| NC1CCN(c2ccc(-n3nc(C(F)(F)F)cc3C3CCCCC3)cc2)CC1 [Compound 324] | 1.9 µM | 27.5 µM |  |
| FC(F)(F)c1cn(-c2ccc(OC3CCNC3)cc2)c(-c2ccc(-c3ccccc3)cc2)n1 (stereo not drawn) [Compound 328] | 2.6 µM | 11.1 µM |  |
| CC(C)(C)c1nc(C(F)(F)F)cn1-c1ccc(NC2CCNC2)cc1 (stereo not drawn) [Compound 330] | 6.2 µM | > 50 µM |  |
| NCC(=O)Nc1ccc(-n2nc(C(F)(F)F)c3c2CCCC3)cc1 [Compound 331] | 9.9 µM | 47 µM |  |
| O=C1CN(c2ccc(-n3cc(C(F)(F)F)nc3-c3ccc(C(F)(F)F)cc3)cc2)CCN1 [Compound 332] | 8 µM | 31.2 µM |  |
| FC(F)(F)c1cc(C2CCCCC2)n(-c2ccc(N3CCC(NCc4ccccc4)CC3)cc2)n1 [Compound 336] | 2.4 µM | 15.9 µM |  |
| Fc1cccc(CNC2CCN(c3ccc(-n4nc(C(F)(F)F)cc4C4CCCCC4)cc3)CC2)c1 [Compound 337] | 3.5 µM | 32.1 µM |  |
| FC(F)(F)c1cc(C2CCCCC2)n(-c2ccc(NC3CCNCC3)cc2)n1 [Compound 339] | 1.7 µM | 18.2 µM |  |
| NCC(=O)Nc1ccc(-n2nc(C(F)(F)F)cc2C2CCCCC2)cc1 [Compound 341] | 4 µM | 26.5 µM |  |
| O=C(CNCc1ccccc1)Nc1ccc(-n2nc(C(F)(F)F)cc2C2CCCCC2)cc1 [Compound 353] | 4.2 µM | 17.5 µM |  |
| O=C(CNCc1ccc(O)cc1)Nc1ccc(-n2nc(C(F)(F)F)cc2C2CCCCC2)cc1 [Compound 355] | 2 µM | 21.2 µM |  |
| FC(F)(F)c1cc(C2CCCCC2)n(-c2ccc(NC3CCN(Cc4ccccc4)C3)cc2)n1 (stereo not drawn) [Compound 356] | 2 µM | 15.5 µM |  |
| Fc1cccc(CN2CCC(Nc3ccc(-n4nc(C(F)(F)F)cc4C4CCCCC4)cc3)C2)c1 (stereo not drawn) [Compound 357] | 1.2 µM | 13.1 µM |  |
| Oc1ccc(CNC2CCN(c3ccc(-n4nc(C(F)(F)F)cc4C4CCCCC4)cc3)C2)cc1 (stereo not drawn) [Compound 362] | 2.2 µM | 20 µM |  |
| FC(F)(F)c1cc(C2CCCCC2)n(-c2ccc(N3CCC(NCc4ccccc4)C3)cc2)n1 (stereo not drawn) [Compound 364] | 6.8 µM | 31.1 µM |  |
| Oc1ccc(CN2CCC(Nc3ccc(-n4nc(C(F)(F)F)cc4C4CCCCC4)cc3)C2)cc1 (stereo not drawn) [Compound 368] | 1.6 µM | 12.1 µM |  |

| SMILES | IC50 [1, 7] | CC50 (THP-1 macrophages; [8]) | further results |
| --- | --- | --- | --- |
| FC(F)(F)c1cc(C2CCCCC2)n(-c2ccc(OC3CCNCC3)cc2)n1 [Compound 370] | 2.6 µM | 19.5 µM |  |
| FC(F)(F)c1cc(C2CCCCC2)n(-c2ccc(OC3CCN(Cc4ccccc4)CC3)cc2)n1 [Compound 371] | 8.9 µM | > 50 µM |  |
| N#Cc1ccc(CN2CCC(Oc3ccc(-n4nc(C(F)(F)F)cc4C4CCCCC4)cc3)CC2)cc1 [Compound 373] | 7 µM | > 50 µM |  |
| FC(F)(F)c1cc(C2CCCCC2)n(-c2ccc(OC3CCNC3)cc2)n1 (stereo not drawn) [Compound 375] | 6.3 µM | 12.3 µM |  |
| Oc1ccc(CN2CCC(Oc3ccc(-n4nc(C(F)(F)F)cc4C4CCCCC4)cc3)C2)cc1 (stereo not drawn) [Compound 377] | 8.3 µM | 14.6 µM |  |
| FC(F)(F)c1cc(C2CCCCC2)n(-c2ccc(NC3CCN(Cc4ccccc4)CC3)cc2)n1 [Compound 381] | 6.2 µM | 12.4 µM |  |
| Oc1ccc(CN2CCC(Nc3ccc(-n4nc(C(F)(F)F)cc4C4CCCCC4)cc3)CC2)cc1 [Compound 392] | 4.7 µM | 25.9 µM |  |
| FC(F)(F)c1cc(C2CCCCC2)n(-c2ccc(NC3CNC3)cc2)n1 [Compound 394] | 5.5 µM | 30.9 µM |  |
| FC(F)(F)c1cc(C2CCCCC2)n(-c2ccc(NC3CN(Cc4ccccc4)C3)cc2)n1 [Compound 395] | 7.6 µM | 37.4 µM |  |
| Fc1cccc(CN2CC(Nc3ccc(-n4nc(C(F)(F)F)cc4C4CCCCC4)cc3)C2)c1 [Compound 396] | 6.1 µM | 23.3 µM |  |
| N#Cc1ccc(CN2CC(Nc3ccc(-n4nc(C(F)(F)F)cc4C4CCCCC4)cc3)C2)cc1 [Compound 397] | 8.1 µM | 27.6 µM |  |
| NCC(=O)Nc1ccc(-n2cc(C(F)(F)F)nc2-c2ccc(C(F)(F)F)cc2)cc1 [Compound 409] | 8.8 µM | 35.2 µM |  |
| NCCN1CCC(Oc2ccc(-n3nc(C(F)(F)F)cc3C3CCCCC3)cc2)CC1 [Compound 416] | 1.3 µM | 18.2 µM |  |
| CC(=O)NCCNC1CCN(c2ccc(-n3nc(C(F)(F)F)cc3C3CCCCC3)cc2)CC1 [Compound 419] | 2.7 µM | 21.6 µM |  |
| NCCCNC1CCN(c2ccc(-n3nc(C(F)(F)F)cc3C3CCCCC3)cc2)CC1 [Compound 420] | 1 µM | 7 µM |  |
| CC(=O)NCCCNC1CCN(c2ccc(-n3nc(C(F)(F)F)cc3C3CCCCC3)cc2)CC1 [Compound 421] | 1.5 µM | 19 µM |  |
| NCCCCCN1CCC(Oc2ccc(-n3nc(C(F)(F)F)cc3C3CCCCC3)cc2)CC1 [Compound 422] | 2.5 µM | 6.1 µM |  |
| NCCOCCN1CCC(Oc2ccc(-n3nc(C(F)(F)F)cc3C3CCCCC3)cc2)CC1 [Compound 423] | 6 µM | 3.4 µM |  |
| NCCCCN1CCC(Oc2ccc(-n3nc(C(F)(F)F)cc3C3CCCCC3)cc2)CC1 [Compound 424] | 2.4 µM | 6.5 µM |  |
| NCCCN1CCC(Oc2ccc(-n3nc(C(F)(F)F)cc3C3CCCCC3)cc2)CC1 [Compound 425] | 2.2 µM | 5.5 µM |  |
| CC(=O)NCCOCCN1CCC(Oc2ccc(-n3nc(C(F)(F)F)cc3C3CCCCC3)cc2)CC1 [Compound 427] | 6.1 µM | 29.5 µM |  |
| CC(=O)NCCCN1CCC(Oc2ccc(-n3nc(C(F)(F)F)cc3C3CCCCC3)cc2)CC1 [Compound 428] | 8.9 µM | 11.4 µM |  |
| NCCCOc1ccc(CN2CCC(Oc3ccc(-n4nc(C(F)(F)F)cc4C4CCCCC4)cc3)CC2)cc1 [Compound 429] | 2.4 µM | 12.1 µM |  |
| CC(=O)NCCCCCN1CCC(Oc2ccc(-n3nc(C(F)(F)F)cc3C3CCCCC3)cc2)CC1 [Compound 431] | 4.8 µM | 22.4 µM |  |
| NCCCCCOc1ccc(CN2CCC(Oc3ccc(-n4nc(C(F)(F)F)cc4C4CCCCC4)cc3)CC2)cc1 [Compound 432] | 2.9 µM | 5.6 µM |  |
